Source: US20160009693A1, “HERBICIDAL COMPOUNDS” (SYNGENTA LIMITED, priority 2013, published 2016)

Assays:
Assay type in all cases: in vivo
Conditions in all cases: applied at 1000 g/h, evaluated after 13 days
[1] = test system: Ipomoea hederacea (IPOHE); test: Herbicidal glasshouse test, pre-emergence, IPOHE
Protocol: (§1) Seeds of a variety of test species are sown in standard soil in pots (Alopecurus myosuroides (ALOMY), Setaria faberi (SETFA), Echinochloa crus-galli (ECHCG), Solanum nigrum (SOLNI), Amaranthus retoflexus (AMARE), Ipomoea hederacea (IPOHE)). After cultivation for one day (pre-emergence) or after 8 days cultivation (post-emergence) under controlled conditions in a glasshouse (at 24/16° C., day/night; 14 hours light; 65% humidity), the plants are sprayed with an aqueous spray solution derived from the formulation of the technical active ingredient in acetone / water (50:50) solution containing 0.5% Tween 20 (polyoxyethelyene sorbitan monolaurate, CAS RN 9005-64-5). […] The test plants are then grown in a glasshouse under controlled conditions in a glasshouse (at 24/16° C., day/night; 14 hours light; 65% humidity) and watered twice daily. After 13 days for pre and post-emergence, the test is evaluated for the percentage damage caused to the plant. The biological activities are shown in the following table on a five point scale (5=80-100%; 4=60-79%; 3=40-59%; 2=20-39%; 1=0-19%).

Setaria faberi (SETFA) [2] = test: Herbicidal glasshouse test, post-emergence, SETFA
Protocol: as §1

[3] = test system: Alopecurus myosuroides (ALOMY); test: Herbicidal glasshouse test, post-emergence, ALOMY
Protocol: as §1

[4] = test system: Amaranthus retoflexus (AMARE); test: Herbicidal glasshouse test, pre-emergence, AMARE
Protocol: as §1

Solanum nigrum (SOLNI) [5] = test: Herbicidal glasshouse test, post-emergence, SOLNI
Protocol: as §1

[6] = test system: Echinochloa crus-galli (ECHCG); test: Herbicidal glasshouse test, post-emergence, ECHCG
Protocol: as §1

[7] = test system: Ipomoea hederacea (IPOHE); test: Herbicidal glasshouse test, post-emergence, IPOHE
Protocol: as §1

[8] = test system: Amaranthus retoflexus (AMARE); test: Herbicidal glasshouse test, post-emergence, AMARE
Protocol: as §1

[9] = test system: Alopecurus myosuroides (ALOMY); test: Herbicidal glasshouse test, pre-emergence, ALOMY
Protocol: as §1

[10] = test system: Echinochloa crus-galli (ECHCG); test: Herbicidal glasshouse test, pre-emergence, ECHCG
Protocol: as §1

Solanum nigrum (SOLNI) [11] = test: Herbicidal glasshouse test, pre-emergence, SOLNI
Protocol: as §1

Setaria faberi (SETFA) [12] = test: Herbicidal glasshouse test, pre-emergence, SETFA
Protocol: as §1

Row | Compound | PRE Application IPOHE, percentage damage (five point scale) [1] | POST Application SETFA, percentage damage (five point scale) (Setaria faberi (SETFA) [2]) | POST Application ALOMY, percentage damage (five point scale) [3] | PRE Application AMARE, percentage damage (five point scale) [4] | POST Application SOLNI, percentage damage (five point scale) (Solanum nigrum (SOLNI) [5]) | POST Application ECHCG, percentage damage (five point scale) [6] | POST Application IPOHE, percentage damage (five point scale) [7] | POST Application AMARE, percentage damage (five point scale) [8] | PRE Application ALOMY, percentage damage (five point scale) [9] | PRE Application ECHCG, percentage damage (five point scale) [10] | PRE Application SOLNI, percentage damage (five point scale) (Solanum nigrum (SOLNI) [11]) | PRE Application SETFA, percentage damage (five point scale) (Setaria faberi (SETFA) [12])
1 | CCn1nnnc1NC(=O)c1cn(C)c(=O)n(-c2cccc(F)c2)c1=O [Compound 4.003] | 3 (3=40-59%) | 1 (1=0-19%) | 2 (2=20-39%) | 5 (5=80-100%) | 5 (5=80-100%) | 1 (1=0-19%) | 2 (2=20-39%) | 5 (5=80-100%) | 2 (2=20-39%) | 1 (1=0-19%) | 4 (4=60-79%) | 1 (1=0-19%)
2 | CCCn1nnnc1NC(=O)c1nn(C)c(=O)n(-c2ccc(F)cc2)c1=O [Compound 1.049] | 5 (5=80-100%) | 5 (5=80-100%) | 5 (5=80-100%) | 5 (5=80-100%) | 5 (5=80-100%) | 5 (5=80-100%) | 5 (5=80-100%) | 5 (5=80-100%) | 5 (5=80-100%) | 5 (5=80-100%) | 5 (5=80-100%) | 5 (5=80-100%)
3 | Cn1nnnc1NC(=O)c1nn(C)c(=O)n(Cc2cccc(F)c2C(F)(F)F)c1=O [Compound 1.076] | 5 (5=80-100%) | 5 (5=80-100%) | 5 (5=80-100%) | 5 (5=80-100%) | 5 (5=80-100%) | 5 (5=80-100%) | 5 (5=80-100%) | 5 (5=80-100%) | 5 (5=80-100%) | 5 (5=80-100%) | 5 (5=80-100%) | 5 (5=80-100%)
4 | CC(C)c1ccc(-n2c(=O)c(C(=O)Nc3nnnn3C)nn(C)c2=O)cc1 [Compound 1.046] | 5 (5=80-100%) | 5 (5=80-100%) | 5 (5=80-100%) | 5 (5=80-100%) | 5 (5=80-100%) | 5 (5=80-100%) | 5 (5=80-100%) | 5 (5=80-100%) | 5 (5=80-100%) | 5 (5=80-100%) | 5 (5=80-100%) | 5 (5=80-100%)
5 | Cn1nnnc1NC(=O)c1nn(C)c(=O)n(-c2cccc(F)c2F)c1=O [Compound 1.003] | 5 (5=80-100%) | 5 (5=80-100%) | 5 (5=80-100%) | 5 (5=80-100%) | 5 (5=80-100%) | 5 (5=80-100%) | 5 (5=80-100%) | 5 (5=80-100%) | 5 (5=80-100%) | 5 (5=80-100%) | 5 (5=80-100%) | 5 (5=80-100%)
6 | Cn1nnnc1NC(=O)c1nn(C)c(=O)n(-c2ccc(Br)cc2)c1=O [Compound 1.027] | 5 (5=80-100%) | 5 (5=80-100%) | 5 (5=80-100%) | 5 (5=80-100%) | 5 (5=80-100%) | 5 (5=80-100%) | 5 (5=80-100%) | 5 (5=80-100%) | 5 (5=80-100%) | 5 (5=80-100%) | 5 (5=80-100%) | 5 (5=80-100%)
7 | CC(Cl)c1ccc(-n2c(=O)c(C(=O)Nc3nnnn3C)nn(C)c2=O)cc1 (stereo not drawn) [Compound 1.010] | 5 (5=80-100%) | 5 (5=80-100%) | 5 (5=80-100%) | 4 (4=60-79%) | 5 (5=80-100%) | 5 (5=80-100%) | 5 (5=80-100%) | 5 (5=80-100%) | 5 (5=80-100%) | 5 (5=80-100%) | 5 (5=80-100%) | 5 (5=80-100%)
8 | Cn1nnnc1NC(=O)c1nn(C)c(=O)n(Cc2cccc(Cl)c2)c1=O [Compound 1.084] | 5 (5=80-100%) | 2 (2=20-39%) | 5 (5=80-100%) | 5 (5=80-100%) | 5 (5=80-100%) | 5 (5=80-100%) | 5 (5=80-100%) | 5 (5=80-100%) | 5 (5=80-100%) | 5 (5=80-100%) | 5 (5=80-100%) | 2 (2=20-39%)
9 | Cn1nnnc1NC(=O)c1nn(C)c(=O)n(Cc2cccc(F)c2F)c1=O [Compound 1.067] | 5 (5=80-100%) | 4 (4=60-79%) | 5 (5=80-100%) | 5 (5=80-100%) | 5 (5=80-100%) | 5 (5=80-100%) | 5 (5=80-100%) | 5 (5=80-100%) | 5 (5=80-100%) | 5 (5=80-100%) | 5 (5=80-100%) | 4 (4=60-79%)
10 | Cn1nnnc1NC(=O)c1nn(C)c(=O)n(CC2CCOCC2)c1=O [Compound 1.095] | 5 (5=80-100%) | 5 (5=80-100%) | 5 (5=80-100%) | 5 (5=80-100%) | 5 (5=80-100%) | 5 (5=80-100%) | 5 (5=80-100%) | 5 (5=80-100%) | 5 (5=80-100%) | 5 (5=80-100%) | 5 (5=80-100%) | 5 (5=80-100%)
